What is called inhibition is the change of the read-out against control, counted positive when it falls.

Each structure is given as a SMILES string.

Sequence of S. aureus GyrB ATPase (P0AES4 whole entry): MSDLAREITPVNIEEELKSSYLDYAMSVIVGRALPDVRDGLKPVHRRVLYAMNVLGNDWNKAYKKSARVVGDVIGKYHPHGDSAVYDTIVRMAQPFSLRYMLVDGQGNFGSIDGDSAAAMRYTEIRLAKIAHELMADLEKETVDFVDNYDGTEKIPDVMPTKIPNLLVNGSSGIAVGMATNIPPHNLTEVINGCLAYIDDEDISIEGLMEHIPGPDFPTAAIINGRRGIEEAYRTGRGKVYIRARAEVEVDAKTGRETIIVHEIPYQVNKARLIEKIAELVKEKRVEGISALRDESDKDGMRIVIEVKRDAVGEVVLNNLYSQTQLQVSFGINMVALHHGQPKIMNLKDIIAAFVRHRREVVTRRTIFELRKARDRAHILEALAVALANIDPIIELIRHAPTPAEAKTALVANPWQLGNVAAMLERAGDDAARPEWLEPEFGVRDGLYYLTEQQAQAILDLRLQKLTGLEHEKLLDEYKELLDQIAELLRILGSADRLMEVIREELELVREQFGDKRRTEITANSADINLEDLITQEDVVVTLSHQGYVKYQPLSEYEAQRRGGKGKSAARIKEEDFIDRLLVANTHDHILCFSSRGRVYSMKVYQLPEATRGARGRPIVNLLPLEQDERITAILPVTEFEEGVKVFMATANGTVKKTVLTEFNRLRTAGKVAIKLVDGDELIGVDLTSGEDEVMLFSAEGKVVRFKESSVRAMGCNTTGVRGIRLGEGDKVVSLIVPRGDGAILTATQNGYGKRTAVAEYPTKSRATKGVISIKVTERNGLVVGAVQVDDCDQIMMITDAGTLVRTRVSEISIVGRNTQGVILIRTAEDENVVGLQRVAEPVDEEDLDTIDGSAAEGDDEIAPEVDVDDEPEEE
Sequence of S. aureus GyrB ATPase (P0A0K8 whole entry): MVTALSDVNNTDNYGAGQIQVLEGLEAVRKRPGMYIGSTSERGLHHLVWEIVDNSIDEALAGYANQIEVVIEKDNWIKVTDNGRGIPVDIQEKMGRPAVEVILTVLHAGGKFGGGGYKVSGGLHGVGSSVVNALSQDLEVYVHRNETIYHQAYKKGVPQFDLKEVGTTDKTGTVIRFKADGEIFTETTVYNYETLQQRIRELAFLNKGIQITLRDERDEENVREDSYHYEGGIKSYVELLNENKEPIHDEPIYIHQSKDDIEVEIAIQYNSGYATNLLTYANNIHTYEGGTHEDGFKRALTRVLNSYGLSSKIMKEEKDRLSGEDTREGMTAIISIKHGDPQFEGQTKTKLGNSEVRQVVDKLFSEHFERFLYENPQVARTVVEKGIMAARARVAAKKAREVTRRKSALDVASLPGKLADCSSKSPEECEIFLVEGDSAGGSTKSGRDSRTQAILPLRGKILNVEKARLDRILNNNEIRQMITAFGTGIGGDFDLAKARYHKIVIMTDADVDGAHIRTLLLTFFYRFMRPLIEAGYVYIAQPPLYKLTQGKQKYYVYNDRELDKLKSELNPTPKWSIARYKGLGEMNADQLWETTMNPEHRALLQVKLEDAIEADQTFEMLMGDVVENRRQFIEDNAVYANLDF

This experiment has as its target S. aureus GyrB ATPase (Staphylococcus aureus, UniProt P0A0K8). The experiment can be described thus: S. aureus GyrB ATPase inhibition (ammonium molybdate/malachite green phosphate detection). The following applies: compound concentration of 1 μM. The format is biochemical. The gist of the method:
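E. coli GyrA and S. aureus GyrB (250 pM each) with sheared salmon sperm DNA and 250 μM ATP, pH 7.5 Hepes buffer. Released phosphate detected by malachite green/ammonium molybdate at 650 nm; percent inhibition at 1 μM compound unless noted, normalized to 2% DMSO (0%) and EDTA (100%) controls.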
Consider `Cc1[nH]c(C(=O)N[C@@H]2CCN(c3nc(-c4cnccn4)c(C(=O)O)s3)C[C@@H]2OCc2ccccc2)c(C#N)c1Cl` [Example 155, 2-[(3S,4R)-3-(benzyloxy)-4-{[(4-chloro-3-cyano-5-methyl-1H-pyrrol-2-yl)carbonyl]amino}piperidin-1-yl]-4-(pyrazin-2-yl)-1,3-thiazole-5-carboxylic acid], for which the inhibition at 1 µM is 110%. Consider `COC(=O)c1sc(N2CC[C@@H](NC(=O)c3[nH]c(C)c(Cl)c3Cl)[C@@H](OC)C2)nc1-c1cn(C)nn1` [Example 92, methyl 2-((3S,4R)-4-(3,4-dichloro-5-methyl-1H-pyrrole-2-carboxamido)-3-methoxypiperidin-1-yl)-4-(1-methyl-1H-1,2,3-triazol-4-yl)thiazole-5-carboxylate], for which the inhibition at 1 µM came out at 100%. For `CO[C@H]1CN(c2nc(-c3ncc[nH]3)c(C(=O)O)s2)CC[C@H]1NC(=O)c1[nH]c(C)c(Cl)c1Cl` [Example 18, 2-((3S,4R)-4-{[(3,4-Dichloro-5-methyl-1H-pyrrol-2-yl)carbonyl]amino}-3-methoxypiperidin-1-yl)-4-(1H-imidazol-2-yl)-1,3-thiazole-5-carboxylic acid] the value was 101%. Take `CCOC(=O)c1sc(N2CC[C@@H](NC(=O)c3[nH]c(C)c(Cl)c3Cl)[C@@H](OC)C2)nc1-c1ccncn1` [Example 81]: the inhibition at 1 µM is 100%. As for `COCCn1ccnc1-c1nc(N2CC[C@@H](NC(=O)c3[nH]c(C)c(Cl)c3Cl)[C@@H](F)C2)sc1C(=O)OC` [Example 65], the inhibition at 1 µM came to 98.3%. As for `Cc1cnc(-c2nc(N3CC[C@@H](NC(=O)c4[nH]c(C)c(Cl)c4Cl)[C@@H](F)C3)sc2C(=O)O)cn1` [Example 118, 2-((3S,4R)-4-(3,4-dichloro-5-methyl-1H-pyrrole-2-carboxamido)-3-fluoropiperidin-1-yl)-4-(5-methylpyrazin-2-yl)thiazole-5-carboxylic acid], the figure is 92.1%; as for `Cc1[nH]c(C(=O)N[C@@H]2CCN(c3nc(-c4cc(N(C)C)nc(N(C)C)n4)c(C(=O)O)s3)C[C@@H]2F)c(Cl)c1Cl` [Example 10, 4-[2,6-Bis(dimethylamino)pyrimidin-4-yl]-2-((3S,4R)-4-{[(3,4-dichloro-5-methyl-1H-pyrrol-2-yl)carbonyl]amino}-3-fluoropiperidin-1-yl)-1,3-thiazole-5-carboxylic acid], 101%. As for `Cc1[nH]c(C(=O)N[C@@H]2CCN(c3nc(-c4ncccc4F)c(C(=O)O)s3)C[C@@H]2OCc2ccccc2)cc1Cl` [Example 149, 2-[(3S,4R)-3-(benzyloxy)-4-{[(4-chloro-5-methyl-1H-pyrrol-2-yl)carbonyl]amino}piperidin-1-yl]-4-(3-fluoropyridin-2-yl)-1,3-thiazole-5-carboxylic acid], the inhibition at 1 µM worked out at 103%. As for `COCCn1ccnc1-c1nc(N2CC[C@@H](NC(=O)c3[nH]c(C)c(C#N)c3Cl)[C@@H](OC)C2)sc1C(=O)OC` [Example 69], the figure is 100%; as for `COC(=O)c1sc(N2CC[C@@H](NC(=O)c3[nH]c(C)c(C#N)c3Cl)[C@@H](OC)C2)nc1-c1ncnn1C` [Example 80], 99.7%. As for `CCOC(=O)c1sc(N2CC[C@@H](NC(=O)c3[nH]c(C)c(Cl)c3C#N)[C@@H](OC)C2)nc1-c1ncccn1` [Example 105, ethyl 2-((3S,4R)-4-(4-chloro-3-cyano-5-methyl-1H-pyrrole-2-carboxamido)-3-methoxypiperidin-1-yl)-4-(pyrimidin-2-yl)thiazole-5-carboxylate], the figure is 103%; as for `Cc1[nH]c(C(=O)N[C@@H]2CCN(c3nc(-c4ncnn4C)c(C(=O)O)s3)C[C@@H]2OCc2ccccc2)c(Cl)c1Cl` [Example 141, 2-[(3S,4R)-3-(benzyloxy)-4-{[(3,4-dichloro-5-methyl-1H-pyrrol-2-yl)carbonyl]amino}piperidin-1-yl]-4-(1-methyl-1H-1,2,4-triazol-5-yl)-1,3-thiazole-5-carboxylic acid], 116%.

Turning to `COC(=O)c1sc(N2CC[C@@H](NC(=O)c3[nH]c(C)c(Cl)c3C#N)[C@@H](OC)C2)nc1-c1ncnn1C` [Example 104, methyl 2-((3S,4R)-4-(4-chloro-3-cyano-5-methyl-1H-pyrrole-2-carboxamido)-3-methoxypiperidin-1-yl)-4-(1-methyl-1H-1,2,4-triazol-5-yl)thiazole-5-carboxylate], the inhibition at 1 µM stood at 86.4%.

Regarding `CO[C@H]1CN(c2nc(-c3nccn3COCC[Si](C)(C)C)c(C(=O)O)s2)CC[C@H]1NC(=O)c1[nH]c(C)c(Cl)c1Cl` [Example 16, 2-((3S,4R)-4-{[(3,4-Dichloro-5-methyl-1H-pyrrol-2-yl)carbonyl]amino}-3-methoxypiperidin-1-yl)-4-(1-{[2-(trimethylsilyl)ethoxy]methyl}-1H-imidazol-2-yl)-1,3-thiazole-5-carboxylic acid], the inhibition at 1 µM is 100%. For `COCCn1ccnc1-c1nc(N2CC[C@@H](NC(=O)c3[nH]c(C)c(Cl)c3C#N)[C@@H](OCc3ccccc3)C2)sc1C(=O)O` [Example 153] the value was 98.6%; for `CO[C@H]1CN(c2nc(-c3cn(C)cn3)c(C(=O)O)s2)CC[C@H]1NC(=O)c1[nH]c(C)c(Cl)c1C#N` [Example 125, 2-((3S,4R)-4-(4-chloro-3-cyano-5-methyl-1H-pyrrole-2-carboxamido)-3-methoxypiperidin-1-yl)-4-(1-methyl-1H-imidazol-4-yl)thiazole-5-carboxylic acid], 103%; for `COCn1ccnc1-c1nc(N2CC[C@@H](NC(=O)c3[nH]c(C)c(Cl)c3Cl)[C@@H](OC)C2)sc1C(=O)OC` [Example 58, methyl 2-((3S,4R)-4-{[(3,4-dichloro-5-methyl-1H-pyrrol-2-yl)carbonyl]amino}-3-methoxypiperidin-1-yl)-4-[1-(methoxymethyl)-1H-imidazol-2-yl]-1,3-thiazole-5-carboxylate], 99.5%. For `CO[C@H]1CN(c2nc(-c3cc(N(C)C)nc(N(C)C)n3)c(C(=O)O)s2)CC[C@H]1NC(=O)c1[nH]c(C)c(Cl)c1Cl` [Example 9, 4-[2,6-Bis(dimethylamino)pyrimidin-4-yl]-2-((3S,4R)-4-{[(3,4-dichloro-5-methyl-1H-pyrrol-2-yl)carbonyl]amino}-3-methoxypiperidin-1-yl)-1,3-thiazole-5-carboxylic acid] the value was 102%; for `CCCO[C@H]1CN(c2nc(-c3ncccc3F)c(C(=O)O)s2)CC[C@H]1NC(=O)c1[nH]c(C)c(Cl)c1Cl` [Example 160, 2-[(3S,4R)-4-{[(3,4-dichloro-5-methyl-1H-pyrrol-2-yl)carbonyl]amino}-3-propoxypiperidin-1-yl]-4-(3-fluoropyridin-2-yl)-1,3-thiazole-5-carboxylic acid], 4.5%. As for `CO[C@H]1CN(c2nc(-c3cnc(C)cn3)c(C(=O)O)s2)CC[C@H]1NC(=O)c1[nH]c(C)c(Cl)c1Cl` [Example 113, 2-((3S,4R)-4-(3,4-dichloro-5-methyl-1H-pyrrole-2-carboxamido)-3-methoxypiperidin-1-yl)-4-(5-methylpyrazin-2-yl)thiazole-5-carboxylic acid], the figure is 92.9%; as for `CNc1nc(-c2nc(N3CC[C@@H](NC(=O)c4[nH]c(C)c(Cl)c4Cl)[C@@H](F)C3)sc2C(=O)OC)cs1` [Example 75], 93.1%; as for `CCOC(=O)c1sc(N2CC[C@@H](NC(=O)c3[nH]c(C)c(Cl)c3C#N)[C@@H](OC)C2)nc1-c1cn(C)cn1` [Example 108, ethyl 2-((3S,4R)-4-(4-chloro-3-cyano-5-methyl-1H-pyrrole-2-carboxamido)-3-methoxypiperidin-1-yl)-4-(1-methyl-1H-imidazol-4-yl)thiazole-5-carboxylate], 86.6%. Turning to `CCOC(=O)c1sc(N2CC[C@@H](NC(=O)c3[nH]c(C)c(Cl)c3Cl)[C@@H](OC)C2)nc1-c1cnc(C)cn1` [Example 96, ethyl 2-((3S,4R)-4-(3,4-dichloro-5-methyl-1H-pyrrole-2-carboxamido)-3-methoxypiperidin-1-yl)-4-(5-methylpyrazin-2-yl)thiazole-5-carboxylate], the inhibition at 1 µM turned out to be 90.2%. With `CCOC(=O)c1sc(N2CC[C@@H](NC(=O)c3[nH]c(C)c(Cl)c3Cl)[C@@H](OC)C2)nc1-c1cnccn1` [Example 53], the inhibition at 1 µM came to 100%. As for `CO[C@H]1CN(c2nc(-c3ccn[nH]3)c(C(=O)O)s2)CC[C@H]1NC(=O)c1[nH]c(C)c(Cl)c1Cl` [Example 23, 2-((3S,4R)-4-{[(3,4-Dichloro-5-methyl-1H-pyrrol-2-yl)carbonyl]amino}-3-methoxypiperidin-1-yl)-4-(1H-pyrazol-5-yl)-1,3-thiazole-5-carboxylic acid], the figure is 100%. Regarding `COC(=O)c1sc(N2CC[C@@H](NC(=O)c3[nH]c(C)c(Cl)c3Cl)[C@@H](F)C2)nc1-c1csc(N(C)C)n1` [Example 76], the inhibition at 1 µM is 99.2%. As for `Cc1[nH]c(C(=O)N[C@@H]2CCN(c3nc(-c4cnccn4)c(C(=O)O)s3)C[C@@H]2F)c(Cl)c1Cl` [Example 14], the figure is 98.3%; as for `COC(=O)c1sc(N2CC[C@@H](NC(=O)c3[nH]c(C)c(Cl)c3C#N)[C@@H](OC)C2)nc1-c1cn(C)nn1` [Example 103, methyl 2-((3S,4R)-4-(4-chloro-3-cyano-5-methyl-1H-pyrrole-2-carboxamido)-3-methoxypiperidin-1-yl)-4-(1-methyl-1H-1,2,3-triazol-4-yl)thiazole-5-carboxylate], 85.7%; as for `COC(=O)c1sc(N2CC[C@@H](NC(=O)c3[nH]c(C)c(Cl)c3Cl)[C@@H](OC)C2)nc1-c1ncc[nH]1` [Example 86, Methyl 2-((3S,4R)-4-{[(3,4-dichloro-5-methyl-1H-pyrrol-2-yl)carbonyl]amino}-3-methoxypiperidin-1-yl)-4-(1H-imidazol-2-yl)-1,3-thiazole-5-carboxylate], 99.9%. As for `COC(=O)c1sc(N2CC[C@@H](NC(=O)c3[nH]c(C)c(Cl)c3Cl)[C@@H](F)C2)nc1-c1csc(N)n1` [Example 74], the inhibition at 1 µM stood at 100%.

(Values after patent publication US20080312255A1 (ASTRAZENECA AB, priority 2007, published 2008).)
